Target: T1, 3-oxo-5-alpha-steroid 4-dehydrogenase 1 (Rattus norvegicus, UniProt P24008)
T1 sequence (P24008 whole entry): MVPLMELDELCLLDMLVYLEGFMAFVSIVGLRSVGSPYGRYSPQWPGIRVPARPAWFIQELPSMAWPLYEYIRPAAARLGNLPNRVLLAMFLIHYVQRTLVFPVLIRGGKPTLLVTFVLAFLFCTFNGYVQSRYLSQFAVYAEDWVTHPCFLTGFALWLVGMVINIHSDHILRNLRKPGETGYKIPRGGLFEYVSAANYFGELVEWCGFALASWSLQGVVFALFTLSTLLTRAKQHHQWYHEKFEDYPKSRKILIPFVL
Assay: Inhibition of Sprague-Dawley rat liver steroid 5-alpha-reductase assessed as inhibition of testosterone conversion to dihydrotestosterone incubated for 30 mins by HPLC method

Row | IC50 | SMILES
1 | 1940 µM | CC(C)=C1C/C=C(/C)CC/C=C(/C)CC1=O
2 | 960 µM | C#C[C@]1(O)CC[C@H]2[C@@H]3CCc4cc(O)ccc4[C@H]3CC[C@@]21C [ETHINYL ESTRADIOL]

From ChEMBL document CHEMBL3352231, “Conformational analysis of an anti-androgenic, (E,E)-8-hydroxygermacrene B, using NOESY and dynamic NMR spectroscopy” (Bioorg Med Chem Lett, 2014)
